“Also recorded” adds a separate entry of the source.
Columns and labels:
Assay type in all cases: cell-based, mice
[1] = tested on: CD28-deficient DO11.10 splenocytes (T cells); assay: Proliferation assay: tritiated thymidine incorporation of retrovirally infected splenocytes stimulated with OVA(323-339) peptide and APC; details: CD28-deficient T cells reconstituted with the construct; for CD28-dependent proliferation: OVA(323-339) peptide plus T-depleted irradiated Balb/c splenocytes, final 8 h of 72 h culture
IL-2 = IL-2 content of culture supernatants by CTLL-2 bioassay; details: cells expressing the construct; OVA peptide antigen or antigen plus anti-CD28 (1.0 μg/ml); supernatant at 48 hours
Description: FIG. 3 contains three bar graphs. Splenocytes from CD28-deficient DO11.10 mice were infected with retrovirus encoding either control (GFPRV) or wild type CD28 (FLCD28) or mutant CD28 constructs and stimulated with OVA(323-339) peptide alone, with CTLA4Ig (10 μg/ml) or with anti-CD28 mAb (1.0 μg/ml). Culture supernatant was harvested at 48 hours and assessed for IL-2 by CTLL-2 bioassay. Shown is the tritiated thymidine incorporation of the CTLL-2 cells. The mean +/−the std deviation of quadruplicate wells is plotted. Data from one representative experiment is shown. A) CTLL-2 assay following stimulation with 0.1 μM OVA. B) CTLL-2 assay following stimulation with 0.03 μM OVA.
Proliferation assays: Wild type or CD28-deficient DO11.10 splenocytes were isolated and infected with retrovirus encoding for either vector alone, full-length CD28, or mutant CD28 proteins. 5×10^4 infected cells were cocultured with 1.5×10^5 T-depleted, irradiated splenocytes from Balb/c mice. Graded doses of OVA(323-339) peptide were added alone or in combination with murine CTLA4Ig (10 μg/ml, provided by Genetics Institute, Cambridge Mass.), anti-CD28 mAb (1.0 μg/ml) or control Ig. Proliferation was determined by tritiated thymidine incorporation for the final 8 hours of a 72 hour culture. All conditions were plated in quadruplicate and the mean +/− standard deviation of the quadruplicate wells was determined. Culture supernatants were harvested from replicate plates at 48 hours and were assayed for IL-2 content by CTLL-2 bioassay. All experiments were repeated a minimum of three times. Representative data from one experiment is presented.
CD28 regulates IL-2 by both transcriptional and post-transcriptional processes (Fraser, J. D., etal., 1991. CD28. Science 251:313. Lindsten, T., et al 1989. Science 244:339). […]

Bcl-XL = Bcl-XL expression by Western blot in retrovirally infected T cells; details: cells expressing the construct, anti-CD3 (10 μg/ml) alone or with soluble anti-CD28 (1.0 μg/ml)

## CD28Y188F: CD28 mutant which lacked the tyrosine within the PYAP motif (SEQ ID NO: 8) (IWTNSRRLLQSDYMNMTPRRPGLTRKPYQPFAPARDFAAYRP; listed as Homo sapiens)
[1]
  CD28-dependent proliferation: less effect
IL-2
  IL-2 secretion: comparable to wild type

## CD28P187,190A: CD28 mutant with alanine instead of proline residues at position 187 and 190 (SEQ ID NO: 7) (IWTNSRRLLQSDYMNMTPRRPGLTRKPYQAYAAARDFAAYRP; listed as Homo sapiens)
[1]
  CD28-dependent proliferation: abrogated CD28-dependent proliferation
IL-2
  IL-2 secretion: marked decrease in IL-2 secretion
Bcl-XL
  induction of Bcl-XL protein: Bcl-XL induction was induced
Bcl-XL; listed as CD28PI 87,190A
  induction of Bcl-XL protein: increased Bcl-XL expression

## CD28Y170F: mutant CD28 with phenylalanine substituted for the tyrosine at position 170 (SEQ ID NO: 6) (IWTNSRRLLQSDFMNMTPRRPGLTRKPYQPYAPARDFAAYRP; listed as Homo sapiens)
[1]
  CD28-dependent proliferation: appeared normal
[1]; multiple experiments (FIG. 2B)
  CD28-dependent proliferation, % proliferation of controls: 60-80%
IL-2
  IL-2 secretion: comparable to wild type; also recorded: equivalent levels as cells reconstituted with wild type CD28
Bcl-XL
  induction of Bcl-XL protein: unable to induce Bcl-XL induction

## CD28d16: CD28 mutant with deletion of the C-terminal 16 amino acids (SEQ ID NO: 5) (IWTNSRRLLQSDYMNMTPRRPGLTRK; listed as Homo sapiens)
[1]
  CD28-dependent proliferation: did not produce any significant CD28-dependent proliferation
Bcl-XL
  induction of Bcl-XL protein: unable to induce Bcl-XL induction

## FLCD28: full-length wild type murine CD28 expressed by retrovirus (SEQ ID NO: 3) (IWTNSRRLLQSDYMNMTPRRPGLTRKPYQPYAPARDFAAYRP; listed as Homo sapiens)
[1]
  CD28-dependent proliferation: strong proliferative response
Bcl-XL
  induction of Bcl-XL protein: CD28-dependent induction of Bcl-XL protein
